# From patent US11420935B2, “Bicyclic compounds” (Vivace Therapeutics, Inc., priority 2019, dated 2022)
# Test system: 8×TBD luciferase reporter (YAP) in HEK293T cells
# Test: YAP Reporter Assay (8×TBD firefly luciferase reporter)
# Type: cell-based
# Conditions: Homo sapiens, HEK-293T, 24 h, read-out: Firefly Luciferase IC50 (μM)
# Protocol: HEK293T cells stably transfected with 8×TBD luciferase reporter and pRLTK in 384-well plates were treated with the test compounds, starting from 3 μM (final concentration in assay plate), 1:3 dilution, and 10 points in quadruplicates. Post 24-hr incubation with compounds at 37° C. and 5% CO2, cells were lysed and 8×TBD-driven firefly luciferase and control TK-driven renilla luciferase activities were measured using Promega Dual-Luciferase Reporter Assay System.
# Reagents: The reagents used for this study are: DMEM: Invitrogen #11960077, Dual-Glo Luciferase Assay System: Promega-E2980, Puromycin Dihydrochloride: Invitrogen-A1113803, 384-well plate: PerkinElmer-6007480, L-GLUTAMINE: Invitrogen-25030164, Hygromycin B: Invitrogen-10687010, and Penicillin-Streptomycin: Merk-TMS-AB2-C
# Media: The media used for this assay were: Culture Medium: DMEM+1 ug/mL puromycin+200 ug/mL hygromycin (with 10% FBS+1 mM L-glutamine); and Assay Medium: DMEM (with 10% FBS+1 mM L-glutamine+1×P/S).
# Cell Plating: The appropriate media was warmed at 37° C. by water bath: Culture Medium, Assay Medium, 1*D-PBS, 0.05% trypsin-EDTA. The cells were trypsinized after removing all media, then washed with 1*sterile D-PBS and then with 2 ml 0.05% trypsin-EDTA. The cells were then incubated at RT for one minute. Then 10 ml/75 cm2 flask Assay Medium was added to each flask. Using a 10 ml pipette, the cells were then gently resuspended in the media, until the clumps completely disappeared. The cells were then transferred into 50 ml centrifuge tubes and were centrifuged at 800 rpm for 5 mins. The medium was removed and the cells were resuspended with Assay Medium. An aliquot of cells was used to count the cell density (cells/ml). The cell suspension was then diluted with Assay Medium to a concentration of 6×10^4 cells/ml. 50 ul cells suspension was then plated to 384-well plate (PerkinElmer-6007480), 3×10^3 cells/well and the cells were incubated in an incubator at 37° C., 5% CO2.
# Compound Treatment: In the afternoon (incubation of the plate with 3-4 hrs), the test compounds were added by Echo, starting from 3 uM (final concentration in the assay plate), 1:3 dilution, 10 points, quadruplicates. The plate was placed at 37° C., 5% CO2 incubator for 24 hrs.
# Detection: The Dual-Glo Luciferase Reagent was prepared by transferring the contents of one bottle of Dual-Glo Luciferase Buffer to one bottle of Dual-Glo Luciferase Substrate to create the Dual-Glo Luciferase Reagent. Mixing was performed by inversion until the substrate was thoroughly dissolved. After mixing, the reagent was aliquoted into 15 ml tubes. In the afternoon (24 hrs post compound treatment), the DMEM+medium in the 384 well plates were aspirated by Microplate Washer.
# Measuring firefly luciferase activity: 20 ul Dual-Glo Luciferase Reagent was added to the 384-well plates. The plates were protected from light to prevent interference with the assay. The plates were shaken for 1 min followed centrifuging plates at 1000 rpm for 30 seconds. After waiting at least 10 minutes, the firefly luminescence was measured by Envision.
# Measuring renilla luciferase activity: 20 ul Stop-Glo Reagent was added to the 384-well plates. The plates were shaken for 1 min and then centrifuged at 1000 rpm for 30 seconds. After waiting at least 10 minutes, the renilla luminescence was measured by Envision.
# Compound IC50 and maximum inhibition on the firefly luciferase and renilla luciferase activities were reported separately.
row,SMILES,IC50 [µM]
1,"CC(C)NC(=O)c1ccc2c(Oc3cccc(Cl)c3)cccc2c1 [Compound 2, 5-(3-chlorophenoxy)-N-isopropyl-2-naphthamide]",< 0.1
2,"N#CCCNC(=O)c1ccc2c(Oc3ccc(C(F)(F)F)cc3)cccc2c1 [Compound 23, N-(2-cyanoethyl)-5-(4-(trifluoromethyl)phenoxy)-2-naphthamide]",< 0.1
3,"C[C@@H](NC(=O)c1ccc2c(Oc3ccc(C(F)(F)F)cc3)cccc2c1)C1CN(CCO)C1 [Compound 135, (R)—N-(1-(1-(2-hydroxyethyl)azetidin-3-yl)ethyl)-5-(4-(trifluoromethyl)phenoxy)-2-naphthamide]",0.1 to 1

# Same assay, conditions: Homo sapiens, HEK-293T; HEK293T cells stably transfected with 8×TBD luciferase reporter and pRLTK; 24-hr incubation; firefly luciferase activity; read-out: Firefly Luciferase IC50
row,SMILES,IC50 [µM]
1,"C[C@H](NC(=O)c1cc2cccc(Oc3ccc(C(F)(F)F)cc3)c2s1)c1ccccn1 [Compound 97, (S)—N-(1-(pyridin-2-yl)ethyl)-7-(4-(trifluoromethyl)phenoxy)benzothiophene-2-carboxamide]",< 0.1
2,"C[C@@H](NC(=O)c1ccc2c(Oc3ccc(C(F)(F)F)cc3)cccc2c1)c1nnnn1C [Compound 56, (R)—N-(1-(1-methyl-1H-tetrazol-5-yl)ethyl)-5-(4-(trifluoromethyl)phenoxy)-2-naphthamide]",0.1 to 1
3,"CC(C)NC(=O)c1cc2cccc(Oc3ccc(C(F)(F)F)cc3)c2s1 [Compound 32, N-isopropyl-7-(4-(trifluoromethyl)phenoxy)benzo[b]thiophene-2-carboxamide]",< 0.1
4,"C#C[C@@H](C)NC(=O)c1ccc2c(Oc3ccc(C(F)(F)F)cc3)cccc2c1 [Compound 61, (R)—N-(but-3-yn-2-yl)-5-(4-(trifluoromethyl)phenoxy)-2-naphthamide]",< 0.1
5,"C[C@@H](NC(=O)c1ccc2c(Oc3ccc(C(F)(F)F)cc3)cccc2c1)c1cc(N)ccn1 [Compound 72, (R)—N-(1-(4-aminopyridin-2-yl)ethyl)-5-(4-(trifluoromethyl)phenoxy)-2-naphthamide]",< 0.1
6,"C[C@H](NC(=O)c1ccc2c(Oc3ccc(C(F)(F)F)cc3)cccc2c1)C1CCC1 [Compound 60, (S)—N-(1-cyclobutylethyl)-5-(4-(trifluoromethyl)phenoxy)-2-naphthamide]",< 0.1
7,"CC(C)NC(=O)c1cnc2c(Oc3ccc(C(F)(F)F)cc3)cc(F)c(F)c2c1 [Compound 81, 5,6-difluoro-N-isopropyl-8-(4-(trifluoromethyl)phenoxy)quinoline-3-carboxamide]",< 0.1
8,"C[C@H](NC(=O)c1ccc2c(Oc3ccc(C(F)(F)F)cc3)cccc2c1)C1CNC1 [Compound 95, N-[(1S)-1-(azetidin-3-yl)ethyl]-5-[4-(trifluoromethyl)phenoxy]naphthalene-2-carboxamide]",< 0.1
9,"C[C@H](NC(=O)c1ccc2c(Oc3ccc(C(F)(F)F)cc3)cccc2c1)c1nccn1C [Compound 69, (S)—N-(1-(1-methyl-1H-imidazol-2-yl)ethyl)-5-(4-(trifluoromethyl)phenoxy)-2-naphthamide]",0.1 to 1
10,"C[C@@H](NC(=O)c1ccc2c(Oc3ccc(C(F)(F)F)cc3)cccc2c1)c1cc(N(C)C)ccn1 [Compound 74, (R)—N-(1-(4-(dimethylamino)pyridin-2-yl)ethyl)-5-(4-(trifluoromethyl)phenoxy)-2-naphthamide]",1 to 3
11,"C[C@H](CCNCCF)NC(=O)c1ccc2c(Oc3ccc(C(F)(F)F)cc3)cccc2c1 [Compound 148, (R)-N-(4-((2-fluoroethyl)amino)butan-2-yl)-5-(4-(trifluoromethyl)phenoxy)-2-naphthamide]",< 0.1
12,"C[C@H](CN)NC(=O)c1ccc2c(Oc3ccc(C(F)(F)F)cc3)cccc2c1 [Compound 107, (R)—N-(1-aminopropan-2-yl)-5-(4-(trifluoromethyl)phenoxy)-2-naphthamide]",0.1 to 1
13,"C[C@@H](CCO)NC(=O)c1ccc2c(Oc3ccc(C(F)(F)F)cc3)cccc2c1 [Compound 115, (S)—N-(4-hydroxybutan-2-yl)-5-(4-(trifluoromethyl)phenoxy)-2-naphthamide]",< 0.1
14,"COC[C@H](C)NC(=O)c1cnc2c(Oc3ccc(C(F)(F)F)cc3)cccc2c1 [Compound 18, N-[(1S)-2-methoxy-1-methyl-ethyl]-8-[4-(trifluoromethyl)phenoxy]quinoline-3-carboxamide]",< 0.1
15,"CS(=O)(=O)NC(=O)c1ccc2c(Oc3ccc(C(F)(F)F)cc3)cccc2c1 [Compound 5, N-(methylsulfonyl)-5-(4-(trifluoromethyl)phenoxy)-2-naphthamide]",< 0.1
16,"C[C@@H](NC(=O)c1ccc2c(Oc3ccc(C(F)(F)F)cc3)cccc2c1)C1CNC1 [Compound 96, N-[(1R)-1-(azetidin-3-yl)ethyl]-5-[4-(trifluoromethyl)phenoxy]naphthalene-2-carboxamide]",< 0.1
17,"O=C(N[C@@H](CO)C1CNC1)c1ccc2c(Oc3ccc(C(F)(F)F)cc3)cccc2c1 [Compound 140, (R)—N-(1-(azetidin-3-yl)-2-hydroxyethyl)-5-(4-(trifluoromethyl)phenoxy)-2-naphthamide]",1 to 3
18,"C[C@@H](NC(=O)c1ccc2c(Oc3ccc(C(F)(F)F)cc3)cccc2c1)C1CCN(CCF)CC1 [Compound 154, (R)-N-(1-(1-(2-fluoroethyl)piperidin-4-yl)ethyl)-5-(4-(trifluoromethyl)phenoxy)-2-naphthamide]",0.1 to 1
19,"O=C(NC(CO)c1ccccn1)c1ccc2c(Oc3ccc(C(F)(F)F)cc3)cccc2c1 (stereo not shown) [Compound 25, N-(2-hydroxy-1-(pyridin-2-yl)ethyl)-5-(4-(trifluoromethyl)phenoxy)-2-naphthamide]",< 0.1
20,"CC(C)N1CCC([C@@H](C)NC(=O)c2ccc3c(Oc4ccc(C(F)(F)F)cc4)cccc3c2)CC1 [Compound 156, (R)-N-(1-(1-isopropylpiperidin-4-yl)ethyl)-5-(4-(trifluoromethyl)phenoxy)-2-naphthamide]",0.1 to 1
21,"C[C@H](NC(=O)c1ccc2c(Oc3ccc(C(F)(F)F)cc3)cccc2c1)c1ccccn1 [Compound 29, (S)—N-(1-(pyridin-2-yl)ethyl)-5-(4-(trifluoromethyl)phenoxy)-2-naphthamide]",< 0.1
22,"O=C(NC1(c2ccccc2)CC1)c1ccc2c(Oc3ccc(C(F)(F)F)cc3)cccc2c1 [Compound 36, N-(1-phenylcyclopropyl)-5-[4-(trifluoromethyl)phenoxy]naphthalene-2-carboxamide]",< 0.1
23,"C[C@H](CO)NC(=O)c1ccc2c(Oc3ccc(C(F)(F)F)cc3)cccc2c1 [Compound 24, (R)—N-(1-hydroxypropan-2-yl)-5-(4-(trifluoromethyl)phenoxy)-2-naphthamide]",< 0.1
24,"C[C@H](NC(=O)c1ccc2c(Oc3ccc(C(F)(F)F)cc3)cccc2c1)c1cc(N)ccn1 [Compound 71, (S)—N-(1-(4-aminopyridin-2-yl)ethyl)-5-(4-(trifluoromethyl)phenoxy)-2-naphthamide]",0.1 to 1
25,"CC(=O)N1CC([C@H](C)NC(=O)c2ccc3c(Oc4ccc(C(F)(F)F)cc4)cccc3c2)C1 [Compound 100, (S)—N-(1-(1-acetylazetidin-3-yl)ethyl)-5-(4-(trifluoromethyl)phenoxy)-2-naphthamide]",0.1 to 1
26,"C[C@H](NC(=O)c1ccc2c(Oc3ccc(C(F)(F)F)cc3)cccc2c1)C1(F)CNC1 [Compound 151, (S)-N-(1-(3-fluoroazetidin-3-yl)ethyl)-5-(4-(trifluoromethyl)phenoxy)-2-naphthamide]",1 to 3
27,"C[C@@H](NC(=O)c1ccc2c(Oc3ccc(C(F)(F)F)cc3)cccc2c1)c1nccn1C [Compound 68, (R)—N-(1-(1-methyl-1H-imidazol-2-yl)ethyl)-5-(4-(trifluoromethyl)phenoxy)-2-naphthamide]",0.1 to 1
28,"C#CCNC(=O)c1ccc2c(Oc3ccc(C(F)(F)F)cc3)cccc2c1 [Compound 20, N-(prop-2-yn-1-yl)-5-(4-(trifluoromethyl)phenoxy)-2-naphthamide]",< 0.1
